Experimental data taken from PubChem BioAssay (NCI).
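Here, GI50 denotes the concentration required for 50% inhibition of growth. TGI marks complete inhibition of growth.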

Experiments:
Test in all cases: DTP human tumour cell line panel, 384-well format
[1] = system: RXF 393 renal
[2] = system: OVCAR-5 ovarian
[3] = system: NCI-H322M lung
[4] = system: BT-549 breast
[5] = system: UO-31 renal
[6] = system: SF-295 CNS
[7] = system: HCT-116 colon
[8] = system: HS 578T breast
[9] = system: EKVX NSCLC
[10] = system: NCI-H226 lung
[11] = system: HT29 colon
[12] = system: HOP-92 NSCLC
[13] = system: NCI-H23 lung
[14] = system: UACC-62 melanoma
[15] = system: SW-620 colon
[16] = system: M14 melanoma
[17] = system: A498 renal
[18] = system: CAKI-1 renal
[19] = system: NCI-H522 lung
[20] = system: KM12 colon
[21] = system: SNB-19 CNS
[22] = system: MOLT-4 leukemia
[23] = system: ACHN renal
[24] = system: DU-145 prostate
[25] = system: SK-MEL-5 melanoma
[26] = system: T-47D breast
[27] = system: OVCAR-3 ovarian
[28] = system: MALME-3M melanoma
[29] = system: SK-MEL-28 melanoma
[30] = system: UACC-257 melanoma
[31] = system: MCF7 breast
[32] = system: NCI-H460 NSCLC
[33] = system: MDA-MB-468 breast
[34] = system: COLO 205 colon
[35] = system: 786-0 renal
[36] = system: PC-3 prostate
[37] = system: SR leukemia
[38] = system: K-562 leukemia
[39] = system: SK-OV-3 ovarian
[40] = system: MDA-MB-231 breast
[41] = system: IGROV1 ovarian
[42] = system: SNB-75 CNS
[43] = system: HL-60(TB) leukemia
[44] = system: SF-268 CNS
[45] = system: SF-539 CNS
[46] = system: MDA-MB-435 melanoma
[47] = system: TK-10 renal
[48] = system: SK-MEL-2 melanoma
[49] = system: HOP-62 NSCLC
[50] = system: A549 NSCLC
[51] = system: OVCAR-8 ovarian
[52] = system: U251 glioblastoma
[53] = system: OVCAR-4 ovarian
[54] = system: HCT-15 colon
[55] = system: SN12C renal

`CC(C)[C@@H](CS(=O)(=O)C(C)C)N1C(=O)[C@@](C)(CC(=O)O)C[C@H](c2cccc(Cl)c2)[C@H]1c1ccc(Cl)cc1` showed a GI50 [1] of 13.1 µM, a TGI [1] of 36 µM and a GI50 [2] of 38 µM. For the same molecule, the TGI [2] was greater than 100 µM, the GI50 [3] was 37.1 µM and the TGI [3] was 94.1 µM. The GI50 [4] was 17.5 µM, the TGI [4] was 34.4 µM and the GI50 [5] was 0.199 µM. It also gave a TGI [5] of 0.445 µM, a GI50 [6] of 14.7 µM and a TGI [6] of 38.7 µM. For the same molecule, the GI50 [7] was 0.334 µM, the TGI [7] was 15.1 µM and the GI50 [8] was 15.5 µM. For the same molecule, the TGI [8] was 32.8 µM, the GI50 [9] was 18.9 µM and the TGI [9] was 51.5 µM. The GI50 [10] was 0.148 µM, the TGI [10] was 0.324 µM and the GI50 [11] was 37 µM. For the same molecule, the TGI [11] was greater than 100 µM, the GI50 [12] was 17.7 µM and the TGI [12] was 40.4 µM. For the same molecule, the GI50 [13] was 14.6 µM, the TGI [13] was 36.9 µM and the GI50 [14] was 0.151 µM. It also gave a TGI [14] of 12.8 µM, a GI50 [15] of 37 µM and a TGI [15] greater than 100 µM. For the same molecule, the GI50 [16] was 13.5 µM, the TGI [16] was 37.5 µM and the GI50 [17] was 0.295 µM. The TGI [17] was 11.3 µM, the GI50 [18] was 0.204 µM and the TGI [18] was 13.1 µM. The GI50 [19] was 20.1 µM, the TGI [19] was 49.3 µM and the GI50 [20] was 0.319 µM. It also gave a TGI [20] of 10 µM, a GI50 [21] of 41.7 µM and a TGI [21] greater than 100 µM. It also gave a GI50 [22] of 0.117 µM, a TGI [22] of 0.246 µM and a GI50 [23] of 0.228 µM. The TGI [23] was 0.949 µM, the GI50 [24] was 27.2 µM and the TGI [24] was greater than 100 µM. The GI50 [25] was 0.994 µM, the TGI [25] was 15 µM and the GI50 [26] was 23.3 µM. It also gave a TGI [26] of 73.2 µM, a GI50 [27] of 14.5 µM and a TGI [27] of 29.7 µM. The GI50 [28] was 0.45 µM, the TGI [28] was 19.8 µM and the GI50 [29] was 42.5 µM. The TGI [29] was greater than 100 µM, the GI50 [30] was 0.203 µM and the TGI [30] was 0.671 µM. For the same molecule, the GI50 [31] was 0.157 µM, the TGI [31] was 0.573 µM and the GI50 [32] was 29.3 µM. For the same molecule, the TGI [32] was greater than 100 µM, the GI50 [33] was 6.07 µM and the TGI [33] was 22.2 µM. For the same molecule, the GI50 [34] was 52.4 µM, the TGI [34] was greater than 100 µM and the GI50 [35] was 36.5 µM. It also gave a TGI [35] greater than 100 µM, a GI50 [36] of 14 µM and a TGI [36] of 62.7 µM. For the same molecule, the GI50 [37] was 0.053 µM, the TGI [37] was 0.187 µM and the GI50 [38] was 20.6 µM. For the same molecule, the TGI [38] was greater than 100 µM, the GI50 [39] was 24 µM and the TGI [39] was 80.2 µM. For the same molecule, the GI50 [40] was 20.5 µM, the TGI [40] was greater than 100 µM and the GI50 [41] was 12.1 µM. It also gave a TGI [41] greater than 100 µM, a GI50 [42] of 26.1 µM and a TGI [42] greater than 100 µM. The GI50 [43] was 17.3 µM, the TGI [43] was 31.2 µM and the GI50 [44] was 28.9 µM. It also gave a TGI [44] greater than 100 µM, a GI50 [45] of 16.5 µM and a TGI [45] of 35.2 µM. The GI50 [46] was 20.7 µM, the TGI [46] was 46 µM and the GI50 [47] was 35.2 µM. It also gave a TGI [47] greater than 100 µM, a GI50 [48] of 19.1 µM and a TGI [48] of 34.6 µM. It also gave a GI50 [49] of 21.5 µM, a TGI [49] of 51.1 µM and a GI50 [50] of 0.433 µM. The TGI [50] was 13 µM, the GI50 [51] was 21.1 µM and the TGI [51] was 92.3 µM. For the same molecule, the GI50 [52] was 15.5 µM, the TGI [52] was 37.8 µM and the GI50 [53] was 18.3 µM. The TGI [53] was greater than 100 µM, the GI50 [54] was 26.4 µM and the TGI [54] was 78.3 µM. For the same molecule, the GI50 [55] was 32.1 µM and the TGI [55] was greater than 100 µM.

In the case of `COC1CCC(n2c([C@@H]3CCCC(=O)N3c3ccc(F)c(F)c3)nc3cc(-c4c(C)noc4C)ccc32)CC1` (stereo not given in full), the GI50 [1] is reported as 1.24 µM, the TGI [1] is reported as 5.22 µM and the GI50 [2] is reported as 11.3 µM. It also gave a TGI [2] of 58.7 µM, a GI50 [3] of 3.02 µM and a TGI [3] of 15.6 µM. It also gave a GI50 [4] of 2.27 µM, a TGI [4] of 15.5 µM and a GI50 [5] of 2.13 µM. It also gave a TGI [5] of 13.8 µM, a GI50 [6] of 5.05 µM and a TGI [6] of 20 µM. The GI50 [7] was 4.48 µM, the TGI [7] was 18.4 µM and the GI50 [8] was 0.716 µM. For the same molecule, the TGI [8] was 14.2 µM, the GI50 [9] was 15.6 µM and the TGI [9] was 43.2 µM. For the same molecule, the GI50 [10] was 1.07 µM, the TGI [10] was 12.1 µM and the GI50 [11] was 1.6 µM. It also gave a TGI [11] of 13.7 µM, a GI50 [12] of 4.57 µM and a TGI [12] of 18.8 µM. For the same molecule, the GI50 [13] was 10.2 µM, the TGI [13] was 25.1 µM and the GI50 [14] was 0.385 µM. For the same molecule, the TGI [14] was 12.1 µM, the GI50 [15] was 13.9 µM and the TGI [15] was 27.5 µM. The GI50 [16] was 0.568 µM, the TGI [16] was 14.9 µM and the GI50 [17] was 6.19 µM. It also gave a TGI [17] of 19.4 µM, a GI50 [18] of 0.532 µM and a TGI [18] of 13.2 µM. The GI50 [19] was 1.38 µM, the TGI [19] was 12.2 µM and the GI50 [20] was 13.6 µM. It also gave a TGI [20] of 28.3 µM, a GI50 [21] of 11.5 µM and a TGI [21] of 27.6 µM. It also gave a GI50 [22] of 2.05 µM, a TGI [22] of 14 µM and a GI50 [23] of 3.62 µM. The TGI [23] was 16.6 µM, the GI50 [24] was 12.8 µM and the TGI [24] was 60.4 µM. For the same molecule, the GI50 [25] was 0.489 µM, the TGI [25] was 8.77 µM and the GI50 [26] was 1.87 µM. It also gave a TGI [26] of 7.11 µM, a GI50 [27] of 2.9 µM and a TGI [27] of 16.1 µM. It also gave a GI50 [28] of 1.04 µM, a TGI [28] of 6.35 µM and a GI50 [29] of 7.88 µM. For the same molecule, the TGI [29] was 21.6 µM, the GI50 [30] was 3.1 µM and the TGI [30] was 17.4 µM. The GI50 [31] was 0.0402 µM, the TGI [31] was 12.4 µM and the GI50 [32] was 3.29 µM. For the same molecule, the TGI [32] was 16.8 µM, the GI50 [33] was 2.94 µM and the TGI [33] was 18.6 µM. For the same molecule, the GI50 [34] was 3.44 µM, the TGI [34] was 18.9 µM and the GI50 [35] was 2.1 µM. For the same molecule, the TGI [35] was 19.9 µM, the GI50 [36] was 3.97 µM and the TGI [36] was 19.5 µM. It also gave a GI50 [37] of 1.22 µM, a TGI [37] of 13.8 µM and a GI50 [38] of 1.51 µM. The TGI [38] was 16.1 µM, the GI50 [39] was 3.96 µM and the TGI [39] was 16.2 µM. The GI50 [40] was 3.05 µM, the TGI [40] was 16.2 µM and the GI50 [41] was 3.36 µM. For the same molecule, the TGI [41] was 15.5 µM, the GI50 [42] was 12.3 µM and the TGI [42] was 26 µM. For the same molecule, the GI50 [43] was 0.0497 µM, the TGI [43] was 1.2 µM and the GI50 [44] was 11.9 µM. It also gave a TGI [44] of 25.6 µM, a GI50 [45] of 5.76 µM and a TGI [45] of 19 µM. It also gave a GI50 [46] of 7.03 µM, a TGI [46] of 23.9 µM and a GI50 [47] of 1.55 µM. For the same molecule, the TGI [47] was 11.8 µM, the GI50 [48] was 4.46 µM and the TGI [48] was 18.4 µM. It also gave a GI50 [49] of 2.92 µM, a TGI [49] of 15.4 µM and a GI50 [50] of 8.03 µM. The TGI [50] was 23.5 µM, the GI50 [51] was 2.8 µM and the TGI [51] was 15.8 µM. For the same molecule, the GI50 [52] was 12 µM, the TGI [52] was 25.9 µM and the GI50 [53] was 1.79 µM. The TGI [53] was 7.76 µM, the GI50 [54] was 2.95 µM and the TGI [54] was 14.8 µM. The GI50 [55] was 12 µM and the TGI [55] was 25.4 µM.
